# According to patent publication US12195427B2, “MASP-2 inhibitors and methods of use” (priority 2018, dated 2025):
# Target: MASP-2 CCP2-SP (Homo sapiens (Human), UniProt O00187)
# Assay: MASP-2 co-crystallization, X-ray crystallography and structure analysis (H-bonds, van der Waals contacts);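 as to Ligand-pharmacophore element distance, pharmacophore element C2: distance from averaged pharmacophore element to bound ligand; missing value means element absent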;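 as to Ligand-pharmacophore element distance, pharmacophore element C3: distance from averaged pharmacophore element to bound ligand; missing value means element absent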;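 as to Ligand-pharmacophore element distance, pharmacophore element C4: distance from averaged pharmacophore element to bound ligand; missing value means element absent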;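 as to Ligand-pharmacophore element distance, pharmacophore element C5: distance from averaged pharmacophore element to bound ligand; missing value means element absent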
# Set-up: van der Waals contact distance, MASP-2 HIS 483 atom CD2 / van der Waals contact distance, MASP-2 HIS 483 atom NE2 / van der Waals contact distance, SER 654 C to compound atom / van der Waals contact distance, SER 654 O to compound atom / van der Waals contact distance, TRP 655 C to compound atom / van der Waals contact distance, MASP-2 GLY 528 atom CA / van der Waals contact distance TRP 655 atom CZ3 / van der Waals contact distance TRP 655 atom N / van der Waals contact distance TRP 655 atom CE3 / van der Waals contact distance GLY 656 atom C / van der Waals contact distance GLY 656 atom CA / van der Waals contact distance GLY 656 atom O / van der Waals contact distance, MASP-2 TYR 607 atom CD1 / van der Waals contact distance, MASP-2 PRO 606 atom O / d(C3,CA1) / d(CA1,N1)2 / d(H4,O1) / d(H4,O2) / d(O1,O2) / d(CA1,O2) / d(CA6,O1) / d(CA6,O2) / d(CA1,C5) / d(O2,H3) / d(N2,C2) / d(CA5,N2) / d(N2,C4) / d(N2,C6) / d(N2,CA3) / d(N2,O3) / d(O4,H2): unit not given beside the values
# Details: for Ligand-pharmacophore element distance, pharmacophore element C2 / Ligand-pharmacophore element distance, pharmacophore element C3 / Ligand-pharmacophore element distance, pharmacophore element C4 / Ligand-pharmacophore element distance, pharmacophore element C5 / Ligand-pharmacophore element distance, pharmacophore element C6 / Ligand-pharmacophore element distance, pharmacophore element C7 / Ligand-pharmacophore element distance, pharmacophore element CA1 / Ligand-pharmacophore element distance, pharmacophore element CA2 / Ligand-pharmacophore element distance, pharmacophore element CA3 / Ligand-pharmacophore element distance, pharmacophore element CA4 / Ligand-pharmacophore element distance, pharmacophore element CA5 / Ligand-pharmacophore element distance, pharmacophore element CA6: Table A4-1; for d(CA1,C5) / d(CA1,O1) / d(CA1,O2) / d(CA1,O4) / d(H4,O1) / d(H4,O2) / d(O1,O2) / d(O4,H2): Table A5-1 pharmacophore: distance between elements, S2/S1 region; for d(N2,C2) / d(N2,CA2) / d(O2,H3) / d(O2,N2): Table A5-2 pharmacophore distance, S3/S4 region; for a(C5, CA1, O1) / a(CA1, O1, O2) / a(CA1, O4, H2) / a(O1, CA1, O4) / a(O1, O2, H4): Table A6-1 pharmacophore angle; for a(O1, O2, H3) / a(O1, O2, N2) / a(O2, N2, C2) / a(O2, N2, CA2): Table A6-2 pharmacophore angle; for Pharmacophore torsion angle a(C5, CA1, O1, H4) / Pharmacophore torsion angle a(H4, O1, O2, H3) / Pharmacophore torsion angle a(H4, O1, O2, N2) / Pharmacophore torsion angle a(O1, H4, O2, CA1) / Pharmacophore torsion angle a(O1, O2, N2, C2): Table A7-1; for Pharmacophore torsion angle a(C5, CA1, O1, H4) / Pharmacophore torsion angle a(H4, O1, O2, H3) / Pharmacophore torsion angle a(H4, O1, O2, N2) / Pharmacophore torsion angle a(O1, H4, O2, CA1) / Pharmacophore torsion angle a(O1, O2, N2, C2) / Pharmacophore torsion angle a(O1, O2, N2, CA2): between pharmacophore elements of the bound compound; for Pharmacophore torsion angle a(O1, O2, N2, CA2): Table A7-2
# Excerpt: This example illustrates the preparation of recombinant MASP-2 protein, based on UniProt O00187, human mannan-binding lectin serine protease 2. Expression constructs for human MASP-2 CCP2-SP and CCP2-SP-6HIS were generated for recombinant expression in E. coli cells.
# Typically, crystallization hits were obtained by screening against […] 96-well crystallization reagent kits (GRAS6, GRAS2, Hampton Research; MORPHEUS, Molecular Dimensions; Wizard 1&2 Cryo, Rigaku Reagents) and crystal growth was inspected by optical microscopy. Crystals were used directly or further optimized for X-ray diffraction. Crystals were captured with cryogenic loops and dipped into liquid nitrogen directly or cryoprotected with a 20% glycerol in crystallization formulation before flash-cooling in liquid nitrogen.
# Thereafter crystals are transferred once or twice for soaking within the crystallization solution containing the MASP-2 inhibitor.
# Crystals were diffracted with synchrotron X-rays of […] and X-ray diffraction datasets were collected at beamlines SSRL BL9-2, BL14-1, BL12-2 as well as ALS sector 5 using Dectris Pilatus and Eiger detectors. Structures were determined by molecular replacement using portions of the structure 1Q3X as search models and partially refined with Buster 2.10.2 or Refmac 5.8. […] When multiple ligand poses were observed, for instance arising from multiple molecules in the asymmetric unit or refined dual poses within the same molecule, only one pose was selected and analyzed.
# LigPlot+ calls these ‘nonbonded contacts’ or ‘hydrophobic contacts’. Despite the name, there are atom pairings that include possible H-bonds. Thus, in some instances, the Table A2 also contains H-bond interactions.
# MASP-2 CCP2-SP, sequence (O00187 445-686): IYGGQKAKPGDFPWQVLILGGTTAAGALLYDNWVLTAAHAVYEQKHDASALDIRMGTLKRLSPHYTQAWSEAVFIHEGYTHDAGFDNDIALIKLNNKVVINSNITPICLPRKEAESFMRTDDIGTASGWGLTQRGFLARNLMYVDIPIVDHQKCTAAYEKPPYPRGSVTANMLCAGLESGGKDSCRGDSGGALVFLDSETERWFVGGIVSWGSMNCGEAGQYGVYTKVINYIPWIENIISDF
# MASP-2 CCP2-SP, sequence (O00187 364-432 partner): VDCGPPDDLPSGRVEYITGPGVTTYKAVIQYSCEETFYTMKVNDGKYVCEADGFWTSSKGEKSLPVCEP
Compound,"Ligand-pharmacophore element distance, pharmacophore element C2","Ligand-pharmacophore element distance, pharmacophore element C3","Ligand-pharmacophore element distance, pharmacophore element C4","Ligand-pharmacophore element distance, pharmacophore element C5","Ligand-pharmacophore element distance, pharmacophore element C6","Ligand-pharmacophore element distance, pharmacophore element C7","Ligand-pharmacophore element distance, pharmacophore element CA1","Ligand-pharmacophore element distance, pharmacophore element CA2","Ligand-pharmacophore element distance, pharmacophore element CA3","Ligand-pharmacophore element distance, pharmacophore element CA4","Ligand-pharmacophore element distance, pharmacophore element CA5","Ligand-pharmacophore element distance, pharmacophore element CA6","d(CA1,C5)","d(CA1,O1)","d(CA1,O2)","d(CA1,O4)","d(H4,O1)","d(H4,O2)","d(O1,O2)","d(O4,H2)",also measured
C[C@H](NC(=O)[C@H]1C[C@@H](c2ccccc2)CCN1)C(=O)NCc1cc(Cl)ccc1O.Cl [1078_4],0.67,0,0,0.52,0,0,1.62,0.59,0,0,0,0,3.13,4.56,4.61,2.76,2.27,2.64,3.39,0.97,"d(N2,C2): 1.51; d(N2,CA2): 5.66; d(O2,H3): 2.72; d(O2,N2): 2.70; a(C5, CA1, O1): 161.60; a(CA1, O1, O2): 112.48; a(CA1, O4, H2): 128.57; a(O1, CA1, O4): 65.56; a(O1, O2, H4): 93.17; a(O1, O2, H3): 141.42; a(O1, O2, N2): 146.07; a(O2, N2, C2): 126.96; a(O2, N2, CA2): 155.54; Pharmacophore torsion angle a(C5, CA1, O1, H4): 32.90; Pharmacophore torsion angle a(H4, O1, O2, H3): −123.98; Pharmacophore torsion angle a(H4, O1, O2, N2): −113.42; Pharmacophore torsion angle a(O1, H4, O2, CA1): −58.33; Pharmacophore torsion angle a(O1, O2, N2, C2): 124.98; Pharmacophore torsion angle a(O1, O2, N2, CA2): 136.93"
C[C@H](NC(=O)[C@H]1C[C@@H](c2ccccc2)CCN1)C(=O)NCc1cc(Cl)ccc1O.Cl [1078_5],0.71,0,0,0.42,0,0,1.76,0.6,0,0,0,0,3.12,4.48,4.88,2.72,2.40,2.46,3.41,0.98,"d(N2,C2): 1.45; d(N2,CA2): 5.65; d(O2,H3): 3.24; d(O2,N2): 2.95; a(C5, CA1, O1): 164.79; a(CA1, O1, O2): 117.54; a(CA1, O4, H2): 131.80; a(O1, CA1, O4): 55.67; a(O1, O2, H4): 90.82; a(O1, O2, H3): 138.56; a(O1, O2, N2): 141.15; a(O2, N2, C2): 114.27; a(O2, N2, CA2): 151.79; Pharmacophore torsion angle a(C5, CA1, O1, H4): 21.83; Pharmacophore torsion angle a(H4, O1, O2, H3): −119.72; Pharmacophore torsion angle a(H4, O1, O2, N2): −115.76; Pharmacophore torsion angle a(O1, H4, O2, CA1): −52.04; Pharmacophore torsion angle a(O1, O2, N2, C2): 148.01; Pharmacophore torsion angle a(O1, O2, N2, CA2): 149.21"
